Test results published in patent publication US4504464A, “2,3-Dialkoxypropyl glyceryl ether and its preparation process as well as cosmetic composition containing same” (Kao Soap Co., Ltd., priority 1981, dated 1985).

Assays:
Viscosity (27° C.) = type: physicochemical
Method: (§1) Physical and chemical properties of the compound prepared in Example 1, which compound relates to the present invention, and an example of its application for cosmetic compositions will be described below.
(§2) Viscosity Water-solubility (25° )

[1] = Water-solubility (25° C.); type: physicochemical; conditions: for Water-solubility (25° C.) 10%: 10% content of the diglycerin dialkyl ether; for Water-solubility (25° C.) 50%: 50% content of the diglycerin dialkyl ether
Method: as §1, §2
* Content (%) of the diglycerin dialkyl ether according to this invention
These figures will have the same significance in subsequent examples.

Compound | Viscosity (27° C.) (Viscosity (27° C.)) [cp] | Water-solubility (25° C.) 10% [1] | Water-solubility (25° C.) 50% [1]
2-butoxy-3-isostearoxypropyl glyceryl ether [Example 4] | 240 | – | –
2-methoxy-3-isostearoxypropyl glyceryl ether [Example 3] | 382 | – | –
2-octoxy-3-isostearoxypropyl glyceryl ether [Example 5] | 280 | Undissolved | Undissolved
CCCCCCCCOCC(COCC(O)CO)OC (stereo not shown) [Example 1, 2-methoxy-3-octoxypropyl glyceryl ether] | 423 | Dissolved | Dissolved
CCCCCCCCCCCCOCC(COCC(O)CO)OC (stereo not shown) [Example 2, 2-methoxy-3-dodecyloxypropyl glyceryl ether] | 504 | Dissolved | –
